Experimental data taken from US11453660B2, “Androgen receptor and glucocorticoid receptor modulators” (ONCOSTELLAE, S.L., priority 2017, dated 2022).

Assays:
human androgen receptor = molecular target: T1, human androgen receptor (Homo sapiens, UniProt P10275, T878A); test: Human Androgen Receptor Binding (radioligand binding, LnCap prostate cancer cell line); settings: LnCap cells, displacement of [^3H]-methyltrienolone, 2 hours at 37° C.; read-out: AR LNCaP
T1 construct: endogenously expressed human androgen receptor using the LnCap prostate cancer cell line; endogenous in cells; host or cells: LNCaP prostate cancer cell line (whole cells)
T1 sequence (P10275 1-920 T878A): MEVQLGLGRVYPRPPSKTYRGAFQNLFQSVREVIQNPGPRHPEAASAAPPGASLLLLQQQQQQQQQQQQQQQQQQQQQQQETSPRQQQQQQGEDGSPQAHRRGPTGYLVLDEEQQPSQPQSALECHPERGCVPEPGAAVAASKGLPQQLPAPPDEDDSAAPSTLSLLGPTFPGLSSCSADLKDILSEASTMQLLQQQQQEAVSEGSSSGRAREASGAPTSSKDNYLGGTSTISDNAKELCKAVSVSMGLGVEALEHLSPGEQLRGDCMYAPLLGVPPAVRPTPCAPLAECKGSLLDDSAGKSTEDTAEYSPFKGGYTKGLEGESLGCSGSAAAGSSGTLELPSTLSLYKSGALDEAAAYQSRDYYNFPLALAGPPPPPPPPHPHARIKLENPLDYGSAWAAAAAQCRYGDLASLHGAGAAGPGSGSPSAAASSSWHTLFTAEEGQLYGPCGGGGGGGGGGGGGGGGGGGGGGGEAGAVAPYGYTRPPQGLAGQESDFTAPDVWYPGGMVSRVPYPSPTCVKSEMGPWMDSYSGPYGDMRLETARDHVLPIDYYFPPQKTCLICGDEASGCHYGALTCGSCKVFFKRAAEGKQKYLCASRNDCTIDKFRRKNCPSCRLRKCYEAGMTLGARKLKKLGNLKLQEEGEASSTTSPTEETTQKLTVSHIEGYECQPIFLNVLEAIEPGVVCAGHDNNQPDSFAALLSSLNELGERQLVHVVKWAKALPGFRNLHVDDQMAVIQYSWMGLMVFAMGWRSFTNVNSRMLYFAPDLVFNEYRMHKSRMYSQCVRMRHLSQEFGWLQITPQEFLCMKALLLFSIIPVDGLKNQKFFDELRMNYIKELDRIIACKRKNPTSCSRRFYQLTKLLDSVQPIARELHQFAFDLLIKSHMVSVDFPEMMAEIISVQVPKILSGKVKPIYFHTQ
Experimental: Human Androgen Receptor Binding
Radioligand binding studies were carried out on endogenously expressed human androgen receptor using the LnCap prostate cancer cell line. The test is based on measuring radioactively labelled AR ligand [^3H]-methyltrienolone that gets displaced by increasing concentrations of test compound. The test is performed in 96-well plates (Falcon, #353072). Positive and negative controls are also required in each analyzed plate to evaluate the total and non-specific binding binding of the radioligand to the receptor. Cells (60000 per well) were incubated for 24 hours before executing the experiment at 37° C. and in a 5% CO2 atmosphere. Medium was replaced by assay buffer (RPMI-640 (ATCC #30-2001) supplemented with 0.1% bovine serum albumin (Sigma #8806-56) and Triamcinolone acetonide (Sigma #T6501)). The compounds at the desired concentrations and [^3H]methyltrienolone (Perkin Elmer #NET590) were added to the wells.
In order to obtain a dose-response curve and calculate the potency of inhibition (expressed as IC50) for AR, a series of 1:10 dilutions in test in 1× buffer from 10 μM to 0.1 nM for each compound was carried out.
Cells were incubated for 2 hours at 37° C. in a 5% CO2 atmosphere and then washed twice with ice-cold HBSS. Then cells were lysed with solubilization buffer (Hank's Balanced Salt Solution (HBSS, Sigma #H6648), 0.5% Sodium dodecyl sulfate 0.5% (SDS, Sigma #L7390-500G, Lote: 078K0102) and 20% Glycerol (Sigma Aldrich, #G2025) for 30 minutes at RT. 75 μL aliquots were taken from each well and transferred to a 96-well flexiplate (Perkin Elmer #1450-401) and mixed with 100 μL of scintillation cocktail (Optiphase supermix, PerkinElmer, #1200-439). Plates are shaken for 60 minutes and radioactivity was measured in a beta scintillation counter (Microbeta Trilux, Perkin Elmer).

[1] = molecular target: T2, Human Glucocorticoid Receptor (Homo sapiens, UniProt P04150); test: Competition Binding in IM-9 Human Glucocorticoid Receptor (GR IM-9); settings: cytosol from IM-9 cell line, 1.5 nM [3H]-Dexamethasone, 4° C. for 6 hours
T2 construct: endogenous in cells; host or cells: cytosol from IM-9 cell line
T2 sequence (P04150 1-777): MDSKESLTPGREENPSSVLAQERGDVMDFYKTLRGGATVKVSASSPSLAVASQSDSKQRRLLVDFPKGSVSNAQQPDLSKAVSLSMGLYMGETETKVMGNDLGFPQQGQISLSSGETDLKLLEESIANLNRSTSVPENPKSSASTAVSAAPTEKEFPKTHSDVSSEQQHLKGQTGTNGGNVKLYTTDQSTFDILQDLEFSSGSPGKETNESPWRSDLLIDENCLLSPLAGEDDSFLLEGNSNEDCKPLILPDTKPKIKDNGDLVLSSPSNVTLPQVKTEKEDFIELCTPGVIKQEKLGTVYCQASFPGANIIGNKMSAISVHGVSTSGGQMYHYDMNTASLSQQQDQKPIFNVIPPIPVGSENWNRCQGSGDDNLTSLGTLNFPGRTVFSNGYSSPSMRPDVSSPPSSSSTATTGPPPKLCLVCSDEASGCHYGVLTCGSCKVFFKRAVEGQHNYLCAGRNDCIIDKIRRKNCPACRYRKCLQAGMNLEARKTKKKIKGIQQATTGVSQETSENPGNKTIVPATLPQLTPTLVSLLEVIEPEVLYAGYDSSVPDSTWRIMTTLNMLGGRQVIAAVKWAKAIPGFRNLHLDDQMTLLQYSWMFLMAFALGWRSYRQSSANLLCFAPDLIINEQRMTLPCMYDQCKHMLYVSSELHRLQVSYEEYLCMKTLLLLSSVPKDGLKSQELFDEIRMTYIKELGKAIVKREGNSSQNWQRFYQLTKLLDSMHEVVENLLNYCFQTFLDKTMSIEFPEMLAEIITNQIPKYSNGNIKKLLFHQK
In short: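 Radioligand competition using 100 μg IM-9 cell cytosol and 1.5 nM [3H]-dexamethasone, incubated 6 h at 4° C in TES/molybdate buffer, pH 7.4. Filtration on PEI-treated GF/B filters, scintillation counting; nonspecific binding defined with 10 μM triamcinolone.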

## CC(=O)C1=C(C)NC(C(F)(F)F)=C(C(=O)OCc2ccccc2)C1c1csc2ncccc12 (stereo not drawn) [Example C56, Benzyl 5-acetyl-6-methyl-4-(thieno[2,3-b]pyridin-3-yl)-2-(trifluoromethyl)-1,4-dihydropyridine-3-carboxylate]
Human androgen receptor
  IC50: 100 to 1000 nM
[1]
  IC50: < 100 nM

## CC(=O)C1=C(C)NC(C)=C(C(=O)OC2CCC(C)(C)CC2)C1c1csc2ncccc12 (stereo not drawn) [Example C76, 4,4-dimethylcyclohexyl 5-acetyl-2,6-dimethyl-4-(thieno[2,3-b]pyridin-3-yl)-1,4-dihydropyridine-3-carboxylate]
Human androgen receptor
  IC50: ≥ 1000 nM
[1]
  IC50: < 100 nM

## CC(=O)C1=C(C)NC(C)=C(C(=O)OC2CCOCC2)C1c1csc2ncccc12 (stereo not drawn) [Example C78, Tetrahydro-2H-pyran-4-yl 5-acetyl-2,6-dimethyl-4-(thieno[2,3-b]pyridin-3-yl)-1,4-dihydropyridine-3-carboxylate]
Human androgen receptor
  IC50: ≥ 1000 nM
[1]
  IC50: 100 to 1000 nM

## COC(=O)C1=C(C#N)NC(C2CC2)=C(C(=O)OC)C1c1csc2c(C#N)cccc12 (stereo not drawn) [Example C112, Dimethyl 2-cyano-4-(7-cyanobenzo[b]thiophen-3-yl)-6-cyclopropyl-1,4-dihydropyridine-3,5-dicarboxylate]
Human androgen receptor
  IC50: 100 to 1000 nM
[1]
  IC50: < 100 nM

## COC(=O)C1=C(C)NC(C#N)=C(C(=O)OC)C1c1csc2c(C#N)cccc12 (stereo not drawn) [Example C113, Dimethyl 2-cyano-4-(7-cyanobenzo[b]thiophen-3-yl)-6-methyl-1,4-dihydropyridine-3,5-dicarboxylate]
Human androgen receptor
  IC50: 100 to 1000 nM
[1]
  IC50: < 100 nM

## COC(=O)C1=C(C)NC(CO)=C(C(=O)OC)C1c1csc2c(C#N)cccc12 (stereo not drawn) [Example C120, Dimethyl 4-(7-cyanobenzo[b]thiophen-3-yl)-2-(hydroxymethyl)-6-methyl-1,4-dihydropyridine-3,5-dicarboxylate]
Human androgen receptor
  IC50: 100 to 1000 nM
[1]
  IC50: < 100 nM

## CC(=O)C1=C(C(=O)OCC2CC2)C(c2csc3c(C#N)cccc23)C(C(C)=O)=C(C)N1 (stereo not drawn) [Example C123, Cyclopropylmethyl 2,5-diacetyl-4-(7-cyanobenzo[b]thiophen-3-yl)-6-methyl-1,4-dihydropyridine-3-carboxylate]
Human androgen receptor
  IC50: < 100 nM
[1]
  IC50: < 100 nM

## COC(=O)C1=C(C)NC(N)=C(C(=O)OCc2ccc(F)cc2)C1c1csc2c(C#N)cccc12 (stereo not drawn) [Example D22, 3-(4-fluorobenzyl) 5-methyl 2-amino-4-(7-cyanobenzo[b]thiophen-3-yl)-6-methyl-1,4-dihydropyridine-3,5-dicarboxylate]
Human androgen receptor
  IC50: ≥ 1000 nM
[1]
  IC50: < 100 nM

## COC(=O)C1=C(C2CC2)NC(N)=C(C(=O)OCc2ccc(F)cc2)C1c1csc2c(C#N)cccc12 (stereo not drawn) [Example D23, 3-(4-fluorobenzyl) 5-methyl 2-amino-4-(7-cyanobenzo[b]thiophen-3-yl)-6-cyclopropyl-1,4-dihydropyridine-3,5-dicarboxylate]
Human androgen receptor
  IC50: 100 to 1000 nM
[1]
  IC50: < 100 nM

## CC1=C(C#N)C(c2csc3c(C#N)cccc23)C(C(=O)OCc2ccc(F)cc2)=C(N)N1 (stereo not drawn) [Example D25, 4-Fluorobenzyl 2-amino-5-cyano-4-(7-cyanobenzo[b]thiophen-3-yl)-6-methyl-1,4-dihydropyridine-3-carboxylate]
Human androgen receptor
  IC50: ≥ 1000 nM
[1]
  IC50: < 100 nM

## N#CC1=C(N)NC(C2CC2)=C(C(=O)OCC2CC2)C1c1csc2c(C#N)cccc12 (stereo not drawn) [Example D26, Cyclopropylmethyl 6-amino-5-cyano-4-(7-cyanobenzo[b]thiophen-3-yl)-2-cyclopropyl-1,4-dihydropyridine-3-carboxylate]
Human androgen receptor
  IC50: 100 to 1000 nM
[1]
  IC50: 100 to 1000 nM

## CC(=O)C1=C(C)NC(N)=C(C(=O)OC2CCCCC2)C1c1csc2c(C#N)cccc12 (stereo not drawn) [Example D29, Cyclohexyl 5-acetyl-2-amino-4-(7-cyanobenzo[b]thiophen-3-yl)-6-methyl-1,4-dihydropyridine-3-carboxylate]
Human androgen receptor
  IC50: 100 to 1000 nM
[1]
  IC50: < 100 nM

## COC(=O)C1=C(C)NC(N)=C(C(=O)OCC2CCC2)C1c1csc2c(C#N)cccc12 (stereo not drawn) [Example D33, 3-(Cyclobutylmethyl) 5-methyl 2-amino-4-(7-cyanobenzo[b]thiophen-3-yl)-6-methyl-1,4-dihydropyridine-3,5-dicarboxylate]
Human androgen receptor
  IC50: 100 to 1000 nM
[1]
  IC50: < 100 nM

## COC(=O)C1=C(C)NC(N)=C(C(=O)OCC2CC(F)(F)C2)C1c1csc2c(C#N)cccc12 (stereo not drawn) [Example D34, 3-((3,3-Difluorocyclobutyl)methyl) 5-methyl 2-amino-4-(7-cyanobenzo[b]thiophen-3-yl)-6-methyl-1,4-dihydropyridine-3,5-dicarboxylate]
Human androgen receptor
  IC50: 100 to 1000 nM
[1]
  IC50: < 100 nM

## CC1=C(C(N)=O)C(c2csc3c(C#N)cccc23)C(C(=O)OCC2CC2)=C(N)N1 (stereo not drawn) [Example D35, Cyclopropylmethyl 2-amino-5-carbamoyl-4-(7-cyanobenzo[b]thiophen-3-yl)-6-methyl-1,4-dihydropyridine-3-carboxylate]
Human androgen receptor
  IC50: 100 to 1000 nM
[1]
  IC50: 100 to 1000 nM

## COC(=O)C1=C(C)NC(N)=C(C(=O)OCC2CC2(F)F)C1c1csc2c(C#N)cccc12 (stereo not drawn) [Example D36, 3-((2,2-Difluorocyclopropyl)methyl) 5-methyl 2-amino-4-(7-cyanobenzo[b]thiophen-3-yl)-6-methyl-1,4-dihydropyridine-3,5-dicarboxylate]
Human androgen receptor
  IC50: 100 to 1000 nM
[1]
  IC50: < 100 nM

## COC(=O)C1=C(C2CC2)NC(N)=C(C(=O)OCC2CC2(F)F)C1c1csc2c(C#N)cccc12 (stereo not drawn) [Example D38, 3-((2,2-Difluorocyclopropyl)methyl) 5-methyl 2-amino-4-(7-cyanobenzo[b]thiophen-3-yl)-6-cyclopropyl-1,4-dihydropyridine-3,5-dicarboxylate]
Human androgen receptor
  IC50: 100 to 1000 nM
[1]
  IC50: < 100 nM

## COC(=O)C1=C(C)NC(N)=C(C(=O)OCC2CC2)C1c1csc2c(C#N)ccc(F)c12 (stereo not drawn) [Example D40, 3-(cyclopropylmethyl) 5-methyl 2-amino-4-(7-cyano-4-fluorobenzo[b]thiophen-3-yl)-6-methyl-1,4-dihydropyridine-3,5-dicarboxylate]
Human androgen receptor
  IC50: 100 to 1000 nM
[1]
  IC50: < 100 nM
